Assay results published in patent US11649232B2, “Synthetic dimeric cinchona alkaloids against cancer” (Ares Pharmaceuticals, LLC, priority 2021, dated 2023).
Like-named read-outs stand apart in the source and are kept apart here.

Experiments:
Type in all cases: cell-based, human
[1] = test system: ALL-1 (Ph+ adult ALL, B-lineage) cell line; experiment: Flow cytometric Annexin V-FITC/PI apoptosis assay; settings: Homo sapiens; ALL-1, side by side comparison; read-out: IC50 (apoptosis)
Description: (§1) Cell lines and Apoptosis Assays. We used the human leukemia cell lines ALL-1 (Ph+ adult ALL, B-lineage), LOUCY (adult T-lineage ALL; ATCC® CRL-2629™), and RAJI (Burkitt's leukemia/lymphoma; ATCC®, CCL-86) as targets to evaluate the anti-leukemic activity of cinchona alkaloids. In vivo leukemia initiating xenograft clones capable of causing disseminated and fatal leukemia in NOD-SCID mice, derived from primary leukemia cells of 5 patients with relapsed ALL, and the aforementioned 3 leukemia cells lines were treated for 24 hours or 48 hours at 37° C. with cinchona alkaloids at increasing concentrations ranging from 0.5 μM to 50 μM. Controls cells were treated with vehicle (PBS).
(§2) Apoptotic death was monitored using multiparameter flow cytometry, as previously reported (Uckun, F. M. et al., British Journal of Haematology, 2011, 153:741-752; Uckun, F. M. et al., J Clin Invest., 2015, 125:1006-18). Controls included vehicle (PBS) treated cells (CON). Cells were analyzed for apoptosis using the standard quantitative flow cytometric apoptosis assay using the Annexin V-FITC Apoptosis Detection Kit from Sigma. The labeled cells were analyzed on a LSR II flow cytometer. The percent apoptosis was calculated using the formula: 100−100×(Percentage of non-apoptotic cells in test sample/Percentage of non-apoptotic cells in untreated control sample). The percentages for Annexin V FITC^−PI^− viable cells and Annexin V-FITC^+PI^+ advanced apoptotic cells for each sample are indicated in the respective quadrants of the depicted two-color fluorescence dot plots.
as §1, with “We” for “Cell lines and Apoptosis Assays. We”, “ARES-BI-C001453. […]” for “cinchona alkaloids.”, “ARES-BI-C001453” for “cinchona alkaloids”

[2] = test system: RAJI (Burkitt's leukemia/lymphoma) cell line; experiment: Flow cytometric Annexin V-FITC/PI apoptosis assay; settings: Homo sapiens; RAJI, side by side comparison; read-out: IC50 (apoptosis)
Description: as §1, §2
as §1, with “We” for “Cell lines and Apoptosis Assays. We”, “ARES-BI-C001453. […]” for “cinchona alkaloids.”, “ARES-BI-C001453” for “cinchona alkaloids”

[3] = test system: LOUCY (adult T-lineage ALL) cell line; experiment: Flow cytometric Annexin V-FITC/PI apoptosis assay; settings: Homo sapiens; LOUCY, side by side comparison; read-out: IC50 (apoptosis)
Description: as §1, §2
as §1, with “We” for “Cell lines and Apoptosis Assays. We”, “ARES-BI-C001453. […]” for “cinchona alkaloids.”, “ARES-BI-C001453” for “cinchona alkaloids”

[4] = test system: BT-20 and PC-3 cells; experiment: Clonogenic assay, pooled 4 experiments (2 PC-3, 2 BT-20)
Description: (§3) Clonogenic Assays. The cytotoxicity of cinchona alkaloids was tested against clonogenic human cancer cells was examined using a methylcellulose colony assay system, as described previously (Uckun, F. M. et al., J. Exp. Med., 1986, 163: 347-68; Uckun, F. M. et al., J. Clin. Invest., 1993, 91: 1044-1051). In brief, cells (10^5 cells/ml in RPMI-10% fetal bovine serum) were treated for 8 hours at 37° C. with cinchona alkaloids at varying concentrations. After treatment, cells were washed twice, and resuspended in clonogenic medium consisting of RPMI 1640 supplemented with 0.9% methylcellulose, 10% fetal bovine serum, and 50 μM 2-mercaptoethanol. Cells were plated at 5×10^4 cells/ml in RPMI 1640 supplemented with 10% fetal bovine serum, and 0.9% methylcellulose in duplicate 35-mm Petri dishes, and cultured for 7 days at 37° C. in a humidified 5% CO2 incubator. Subsequently, cancer cell colonies were enumerated on a grid using an inverted phase-contrast microscope of high optical resolution. Results were expressed as the % Inhibition=[1−(Number of colonies in compound-treated test cultures/Number of colonies in vehicle-treated control cultures)]×100.
as §3, with “cytotoxicity of synthetic dimeric cinchona alkaloids” for “cytotoxicity of cinchona alkaloids”

[5] = test system: PC-3 castration-resistant prostate cancer cell line; experiment: Clonogenic assay (methylcellulose colony assay); settings: for inhibition at 3 µM / IC50 / inhibition at 1 µM / inhibition at 10 µM: Homo sapiens
Description: as §3
as §3, with “cytotoxicity of synthetic dimeric cinchona alkaloids” for “cytotoxicity of cinchona alkaloids”

[6] = test system: ALL-1 BCR-ABL/Ph+ B-lineage ALL cell line; experiment: Clonogenic assay (methylcellulose colony assay)
Description: as §3
as §3, with “cytotoxicity of synthetic dimeric cinchona alkaloids” for “cytotoxicity of cinchona alkaloids”

SMILES: CCC1(O)CCN2CCC1C[C@@H]2[C@@H](Oc1nnc(O[C@H](c2ccnc3ccc(OC)cc23)[C@@H]2N3CC[C@H]4C(O)(CC)CC243)c2ccccc12)c1ccnc2ccc(OC)cc12 (mixture of isomers) [ARES-BI-C001453]
- IC50 [1]: 780 nM
- IC50 [2]: 8.9 µM
- IC50 [3]: 42 nM
- mean number of residual clones forming colonies ([4]; 1 μM, BT-20 and PC-3): 20.9±5.3 /5×10^4 cells
- inhibition at 1 µM ([4]; Homo sapiens, 1 μM, 4 experiments (2 PC-3, 2 BT-20), read-out: inhibition of clonogenic growth (mean±SE)): 82.6 ± 8.1%
- inhibition at 10 µM ([4]; Homo sapiens, 10 μM, BT-20 and PC-3, read-out: inhibition of clonogenic growth (mean±SE)): 99.2 ± 0.2%
- inhibition at 3 µM ([5]; PC-3, PC3 cells, 3 μM, read-out: inhibition of clonogenic growth): > 99%
- IC50 ([5]; PC-3, PC3 cells, read-out: estimated IC50, clonogenic growth): 129 nM
- inhibition at 1 µM ([5]; PC-3 EXP#1, 1 μM): 91.9%
- inhibition at 3 µM ([5]; PC-3 EXP#1, 3 μM, read-out: % Inhibition): 99.7%
- inhibition at 10 µM ([5]; PC-3 EXP#1, 10 μM): 99.5%
- inhibition at 1 µM ([5]; PC-3 EXP#2, 1 μM): 95.6%
- inhibition at 3 µM ([5]; PC-3 EXP#2, 3 μM, read-out: % Inhibition): 99.4%
- inhibition at 10 µM ([5]; PC-3 EXP#2, 10 μM): 99.4%
- IC50 ([5]; PC-3, two independent experiments, non-linear regression, read-out: IC50, inhibition of clonogenic growth): 56 nM
- Colonies/5 × 10^4 Cells ([5]; PC-3 EXP#1, 1 μM): 15.0 Colonies/5 × 10^4 Cells
- Colonies/5 × 10^4 Cells ([5]; PC-3 EXP#1, 3 μM): 0.5 Colonies/5 × 10^4 Cells
- Colonies/5 × 10^4 Cells ([5]; PC-3 EXP#1, 10 μM): 1.0 Colonies/5 × 10^4 Cells
- Colonies/5 × 10^4 Cells ([5]; PC-3 EXP#2, 1 μM): 7.0 Colonies/5 × 10^4 Cells
- Colonies/5 × 10^4 Cells ([5]; PC-3 EXP#2, 3 μM): 1 Colonies/5 × 10^4 Cells
- Colonies/5 × 10^4 Cells ([5]; PC-3 EXP#2, 10 μM): 1 Colonies/5 × 10^4 Cells
- in vitro colony formation by ALL-1 cells ([6]; 10 μM): abrogated the in vitro colony formation
- Colonies/5 × 10^4 Cells ([6]; ALL-1 EXP#1, 1 μM): 27.5 Colonies/5 × 10^4 Cells
- Colonies/5 × 10^4 Cells ([6]; ALL-1 EXP#1, 3 μM): 32.0 Colonies/5 × 10^4 Cells
- Colonies/5 × 10^4 Cells ([6]; ALL-1 EXP#1, 10 μM): 0.0 Colonies/5 × 10^4 Cells
- Colonies/5 × 10^4 Cells ([6]; ALL-1 EXP#2, 1 μM): 99.5 Colonies/5 × 10^4 Cells
- Colonies/5 × 10^4 Cells ([6]; ALL-1 EXP#2, 3 μM): 14.5 Colonies/5 × 10^4 Cells
- Colonies/5 × 10^4 Cells ([6]; ALL-1 EXP#2, 10 μM): 0.0 Colonies/5 × 10^4 Cells
- inhibition at 1 µM ([6]; Homo sapiens, ALL-1 EXP#1, 1 μM): 91.5%
- inhibition at 3 µM ([6]; Homo sapiens, ALL-1 EXP#1, 3 μM): 90.1%
- inhibition at 10 µM ([6]; Homo sapiens, ALL-1 EXP#1, 10 μM): > 99.7%
- inhibition at 1 µM ([6]; Homo sapiens, ALL-1 EXP#2, 1 μM): 56.1%
- inhibition at 3 µM ([6]; Homo sapiens, ALL-1 EXP#2, 3 μM): 93.6%
- inhibition at 10 µM ([6]; Homo sapiens, ALL-1 EXP#2, 10 μM): > 99.6%
- IC50 ([6]; Homo sapiens, ALL-1, two independent experiments, non-linear regression, read-out: IC50, inhibition of clonogenic growth): 290 nM
